Columns and labels:
[1] = tested on: FR-alpha expressing RT16 cells; assay: Inhibition of FR-alpha expressing RT16 cells; type: cell-based; conditions: for selectivity for FR-alpha expressing RT16 cells over RFC expressing pc43-10 cells: RT16 vs pc43-10 cells
Procedure: (§1) AAG366, AAG344, the clinically used antifolates methotrexate, pemetrexed, ratitrexed, as well as the most important GARFTase inhibitor DDATHF (Lometrexol) were evaluated.

[2] = tested on: RFC expressing pc43-10 cells; assay: Inhibition of RFC expressing pc43-10 cells; type: cell-based; conditions: pc43-10 cells vs FR-alpha expressing cells
Procedure: as §1

SMILES | potency against FR-alpha expressing RT16 cells compared with AAG366 and AAG344 [1] | selectivity for FR-alpha expressing RT16 cells over RFC expressing pc43-10 cells [1] | potency against RFC expressing pc43-10 cells compared to FR-alpha expressing RT16 or KB cells [2]
Nc1nc2c(c(=O)[nH]1)C[C@@H](CCc1ccc(C(=O)N[C@@H](CCC(=O)O)C(=O)O)cc1)CN2 [DDATHF] | less potent | none showed selectivity | equal potency
CN(Cc1cnc2nc(N)nc(N)c2n1)c1ccc(C(=O)N[C@@H](CCC(=O)O)C(=O)O)cc1 [methotrexate] | less potent | none showed selectivity | greater potency
Nc1nc2[nH]cc(CCc3ccc(C(=O)N[C@@H](CCC(=O)O)C(=O)O)cc3)c2c(=O)[nH]1 [pemetrexed] | less potent | none showed selectivity | greater potency
Cc1nc(=O)c2cc(CN(C)c3ccc(C(=O)N[C@@H](CCC(=O)O)C(=O)O)s3)ccc2[nH]1 [ratitrexed] | less potent | none showed selectivity | greater potency

Source: patent US9446045B2, “Methods of using selective chemotherapeutic agents for targeting tumor cells” (Duquesne University of the Holy Ghost, priority 2006, dated 2016)
